Patent US20070054325A1, “Materials and methods for screening modulators of neural regeneration” (REGLIA, priority 2005, published 2007)
Read-outs that look alike come from different tables or passages of the source. Bridges are numbered along the chain shown (N, C = ends). Where no end group is shown, it is not given here.

Key:
C3aR = target: T1, C3aR (Mus musculus, UniProt O09047); test: Basal neurogenesis in mice treated with a C3aR antagonist (BrdU/Dcx/NeuN immunostaining); type: in vivo, wild-type C57BL/6 mice; details: for number of Dcx^posBrdU^pos cells, lower compared to control mice: 500 μg/mouse twice daily for 10 days
T1 construct: wild-type C57BL/6 mice (8 week old male; n=12) were injected with a nonpeptide antagonist of the C3aR; from tissue; host or cells: living wild-type C57BL/6 mice; read-out in brain (SVZ, dentate gyrus, olfactory bulb)
T1 sequence (O09047 1-477): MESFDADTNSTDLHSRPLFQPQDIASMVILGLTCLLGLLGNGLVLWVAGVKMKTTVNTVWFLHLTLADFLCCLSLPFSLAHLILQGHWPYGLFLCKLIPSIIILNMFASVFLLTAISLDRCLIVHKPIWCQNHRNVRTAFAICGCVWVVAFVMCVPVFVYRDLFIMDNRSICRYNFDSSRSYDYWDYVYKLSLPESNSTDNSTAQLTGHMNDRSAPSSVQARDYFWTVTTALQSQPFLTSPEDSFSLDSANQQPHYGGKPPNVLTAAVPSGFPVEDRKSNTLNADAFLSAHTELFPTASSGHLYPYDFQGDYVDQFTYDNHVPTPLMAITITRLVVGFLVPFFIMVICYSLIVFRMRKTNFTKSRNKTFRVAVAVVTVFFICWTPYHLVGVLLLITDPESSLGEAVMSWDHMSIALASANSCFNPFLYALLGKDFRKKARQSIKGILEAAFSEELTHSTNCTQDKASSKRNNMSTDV
Protocol: To assess whether signaling through the C3aR plays a role in basal neurogenesis, wild-type C57BL/6 mice (8 week old male; n=12) were injected with a nonpeptide antagonist of the C3aR, SB290157 (Calbiochem, San Diego, Calif., USA; 500 μg/mouse; Ames et al., J. Immunol. 166:6341-6348, 2001) diluted in PBS and DMSO (1.16% v/v) twice daily or vehicle for 10 days. Control mice (n=10) were given PBS and DMSO (1.16% v/v). During the first 7 days, all the mice also received bromodeoxyuridine (BrdU) (Sigma-Aldrich; 200 mg/kg). On day 10 after the first injection, the mice were deeply anesthetized and perfused.
Mouse brains were embedded in paraffin, cut into 8-μm sections, and stained with hematoxylin and erytrosin. For immunohistochemical evaluation, the sections were deparaffinized, permeabilized in 0.01 M citric acid (pH 6.0), heated twice for 5 min each in a microwave oven for antigen retrieval, and blocked with 0.1% BSA and 0.05% Triton-X-100 in PBS. Negative control was performed by omitting the primary antibody, unless stated otherwise.
Newly formed neurons were visualized by staining with biotinylated mouse anti-NeuN monoclonal antibody (Chemicon, Temecula, Calif., USA; 1:100) followed by Cy3-conjugated streptavidin (Sigma-Aldrich; 1:100) or Alexa633-conjugated streptavidin (Molecular Probes; 1:500) in combination with FITC-conjugated rat anti-BrdU antibody (Accurate Chemical, Westbury, N.Y., USA; 1:75). NeuN^pos BrdU^pos cells were counted in the penumbra on 2-3 sections per mouse. BrdU^pos cells were also counted in the SVZ. The sections were further stained with mouse anti-BrdU antibody (DAKO; 1:100) and Alexa 568 conjugated goat anti-mouse Ig (Molecular Probes; 1:500). BrdU^pos and NeuN^posBrdU^pos cells were counted in one hemisphere on 4-12 sections 160 μm apart/region in the granular layer of the olfactory bulb (bregma 3.2 mm to 4.28 mm) and dentate gyrus subgranular zone (bregma −1.34 mm to −3.64 mm).
Migrating neural progenitor cells were detected with goat anti-doublecortin (Dcx) antibody (Santa Cruz Biotechnology, Santa Cruz, Calif., USA; 1:50) followed by Alexa488-conjugated donkey anti-goat Ig (Molecular Probes; 1:100). Sections were further stained with mouse anti-BrdU antibody. BrdU^pos and Dcx^posBrdU^pos cells were counted in one hemisphere on 4-12 sections 160 μm apart/region in the SVZ (bregma 0.14 mm to 1.1 mm), the granular layer of the olfactory bulb (bregma 3.2 mm to 4.28 mm), and dentate gyrus subgranular zone (bregma −1.34 mm to −3.64 mm).
Proliferating migrating neuroblasts (Dcx^posBrdU^pos), newly formed neurons (NeuN^posBrdU^pos) and BrdU^pos cells were counted in the two principal sites of adult neurogenesis, SVZ and the dentate gyrus subgranular zone of the hippocampus, as well as in the olfactory bulb, the final destination for the neuroblasts originating in SVZ under basal conditions. In all three regions, the number of Dcx^posBrdU^pos cells was reduced in mice that received the C3aR antagonist. […] Also, the fraction of these cells among the BrdU^pos cells was reduced in the C3aR antagonist-treated mice: 19.0±1.1 vs. 26.7±1.7%, P<0.005 in the olfactory bulb; 13.1±0.6 vs. 17.3±0.8%, P<0.0005 in the dentate gyrus subgranular zone; and 26.4±0.8 vs. 31.4±1.2%, P<0.005 in the SVZ. […] The fraction of these cells among the BrdU^pos cells was reduced in the C3aR antagonist treated mice: 1.2±0.1 vs. 1.7±0.1%, P<0.005 in the olfactory bulb; 1.7±0.1 vs. 2.3±0.2%, P<0.05 in the dentate gyrus subgranular zone. The number of BrdU^pos cells in any of the regions was not affected by the C3aR antagonist treatment.

[1] = system: Neural stem cells, e.g., HCNA 94/GFPH; test: Neural stem cell differentiation assay (MAP2 immunostaining, DAPI); type: cell-based
Protocol: It was previously known that it was possible to modulate cells, other than neurons, via C3aR. Accordingly, C3aR antagonists blocked modulation via the receptor and C3aR agonists stimulated the receptor. To evaluate the effect of C3aR agonists on neural stem cell differentiation in vitro, a neural stem cell differentiation assay was performed as set out below.
Neural stem cells, e.g., HCNA 94/GFPH, were cultured with a C3aR agonist (C3a) at a concentration of either 10 nM or 100 nM for three to ten days in the presence and absence of a known C3aR antagonist, SB290157 (Ames at al., J. Immunol. 166: 6341-6348, 2001), at a concentration of 5-10 μM, administered to the culture either prior to or at the same time as the C3aR agonist. The number of cells that differentiated into neurons was measured by immunostaining with antibodies against MAP2 (Sigma) and visualized using 4′,6-Diamidino-2-phenylindole (DAPI) staining. A compound is regarded as a stimulator of neural stem cell differentiation into neurons if it stimulates differentiation into neurons at a rate at least 25% greater than control cells (cultured in the presence of medium alone). The effect of the C3aR agonist on neural stem cell differentiation was not blocked by SB290157 (see Table 5 below). Thus, SB290157 was not effective in inhibited neuronal cell differentiation at the concentrations tested.

ETBR = details: Rogers et al., Glia 2003, cited from earlier work

NC(N)=NCCC[C@H](NC(=O)COCC(c1ccccc1)c1ccccc1)C(=O)O [SB290157]
number of Dcx^posBrdU^pos cells, lower compared to control mice (C3aR; SVZ, P<0.05): 12.5%
fraction of Dcx^posBrdU^pos cells among the BrdU^pos cells (C3aR; SVZ, control 31.4±1.2%, P<0.005): 26.4±0.8%
number of BrdU^pos cells (C3aR; any of the regions (SVZ, dentate gyrus subgranular zone, olfactory bulb)): not affected
number of Dcx^posBrdU^pos cells, lower compared to control mice (C3aR; dentate gyrus subgranular zone, P<0.0005): 27%
fraction of NeuN^posBrdU^pos cells among the BrdU^pos cells (C3aR; dentate gyrus subgranular zone, control 2.3±0.2%, P<0.05): 1.7±0.1%
fraction of Dcx^posBrdU^pos cells among the BrdU^pos cells (C3aR; dentate gyrus subgranular zone, control 17.3±0.8%, P<0.0005): 13.1±0.6%
reduction in the number of NeuN^posBrdU^pos cells (C3aR; olfactory bulb and dentate gyrus subgranular zone, P<0.005): 22-25%
number of Dcx^posBrdU^pos cells, lower compared to control mice (C3aR; olfactory bulb, P<0.0005): 34%
fraction of NeuN^posBrdU^pos cells among the BrdU^pos cells (C3aR; olfactory bulb, control 1.7±0.1%, P<0.005): 1.2±0.1%
fraction of Dcx^posBrdU^pos cells among the BrdU^pos cells (C3aR; olfactory bulb, control 26.7±1.7%, P<0.005): 19.0±1.1%
inhibition of the C3aR agonist effect on neural stem cell differentiation ([1]; SB290157 5-10 μM, given prior to or with C3a 10 or 100 nM): not effective
% of MAP2+ Cells Among All DAPI+ Cells (Mean ± SEM) ([1]; SD290157 5 μM alone, culture medium alone 2.54 ± 0.12): 2.70 ± 0.19%

COc1ccccc1Oc1c(NS(=O)(=O)c2ccc(C(C)(C)C)cc2)nc(-c2ncccn2)nc1OCCO [Bosenthan]
effect on astrocyte hypertrophy (ETBR; ETBR antagonist in CNS trauma): reduced astrocyte hypertrophy

endothelin 1: endothelin peptide, an ETBR agonist (CSCSSLMDKECVYFCHLDIIW; disulfide 1-15, 3-11; ends not checked; UniProt P05305 53-73, looked up)
effect on astrocyte hypertrophy (ETBR; ETBR agonist administration): leads to astrocyte hypertrophy
